In patent publication US8273880B2, “Pyrazole compounds with inhibitory activity against ROS kinase” (Korea Institute of Science and Technology, priority 2009, dated 2012):

What was measured:
Assay type in all cases: biochemical
ROS kinase = ROS kinase (Homo sapiens, UniProt P08922); assay: ROS kinase screening (HotSpot, IC50 mode); design: purchased Reaction Biology Corporation; details: 10-dose IC50 mode starting from 20 μM; 10 μM ATP; read-out: Inhibitory Activity against ROS (IC50)
Experimental: (§1) Kinase screening was performed using a “HotSpot” assay platform commercially available from Reaction Biology Corporation. For this kinase screening, reaction buffers were based on 20 mM Hepes (pH 7.5), 10 mM MgCl2, 1 mM EGTA, 0.02% Brij35, 0.02 mg/mL BSA, 0.1 mM Na3VO4, 2 mM DTT, and 1% DMSO, with supplementary factors necessary for respective kinase reactions added thereto. In each enzyme reaction, […] of each kinase was used together with a fresh reaction buffer and appropriate supplementary factors. A solution of each compound in DMSO was added in a suitable concentration to the reaction buffer. Kinase reaction started with the introduction of […] (specific activity […]) and continued for 2 hours at room temperature.
The reaction was performed with 10 μM ATP.

AKT1 (dPH, S473D) = biological target: T1, AKT1 (dPH, S473D) (Homo sapiens, UniProt P31749, S473D); assay: HotSpot kinase screening over 45 different kinases, single dose 10 μM; details: single dose concentration of 10 μM, 10 μM ATP
T1 construct: AKT1 (dPH, S473D); purchased Reaction Biology Corporation
Experimental: as §1
(§2) 1) Screening of Compounds Over 45 Different Kinases
(§3) Each compound was tested twice at a single dose concentration of 10 μM. […] The reaction was performed with 10 μM ATP.

EPHA1 = biological target: T2, EPHA1 (Homo sapiens, UniProt P21709); assay: as above; details: single dose concentration of 10 μM, 10 μM ATP
T2 construct: purchased Reaction Biology Corporation
Experimental: as §1, §2, §3

RET = biological target: T3, RET (Homo sapiens, UniProt P07949); assay: as above; details: single dose concentration of 10 μM, 10 μM ATP
T3 construct: purchased Reaction Biology Corporation
Experimental: as §1, §2, §3

CK1epsilon = biological target: T4, CK1epsilon (Homo sapiens, UniProt P49674); assay: as above; details: single dose concentration of 10 μM, 10 μM ATP
T4 construct: purchased Reaction Biology Corporation
Experimental: as §1, §2, §3

RAF1 = assay: as above; details: single dose concentration of 10 μM, 10 μM ATP
Experimental: as §1, §2, §3

BRAF = biological target: T5, BRAF (Homo sapiens, UniProt P15056); assay: as above; details: single dose concentration of 10 μM, 10 μM ATP
T5 construct: purchased Reaction Biology Corporation
Experimental: as §1, §2, §3

CDK1/cyclinB = biological target: T6, CDK1/cyclinB (Homo sapiens, UniProt P06493); assay: as above; details: single dose concentration of 10 μM, 10 μM ATP
T6 construct: purchased Reaction Biology Corporation
Experimental: as §1, §2, §3

TRKA/NTRK1 = biological target: T7, TRKA/NTRK1 (Homo sapiens, UniProt P04629); assay: as above; details: single dose concentration of 10 μM, 10 μM ATP
T7 construct: purchased Reaction Biology Corporation
Experimental: as §1, §2, §3

RON/MST1R = biological target: T8, RON/MST1R (Homo sapiens, UniProt Q04912); assay: as above; details: single dose concentration of 10 μM, 10 μM ATP
T8 construct: purchased Reaction Biology Corporation
Experimental: as §1, §2, §3

c-Src = biological target: T9, c-Src (Homo sapiens, UniProt P12931); assay: as above; details: single dose concentration of 10 μM, 10 μM ATP
T9 construct: purchased Reaction Biology Corporation
Experimental: as §1, §2, §3

RocK1 = biological target: T10, RocK1 (Homo sapiens, UniProt Q13464); assay: as above; details: single dose concentration of 10 μM, 10 μM ATP
T10 construct: purchased Reaction Biology Corporation
Experimental: as §1, §2, §3

LCK = biological target: T11, LCK (Homo sapiens, UniProt P06239); assay: as above; details: single dose concentration of 10 μM, 10 μM ATP
T11 construct: purchased Reaction Biology Corporation
Experimental: as §1, §2, §3

KDR/VEGFR2 = biological target: T12, KDR/VEGFR2 (Homo sapiens, UniProt P35968); assay: as above; details: single dose concentration of 10 μM, 10 μM ATP
T12 construct: purchased Reaction Biology Corporation
Experimental: as §1, §2, §3

FLT1 = biological target: T13, FLT1 (Homo sapiens, UniProt P17948); assay: as above; details: single dose concentration of 10 μM, 10 μM ATP
T13 construct: purchased Reaction Biology Corporation
Experimental: as §1, §2, §3

IKKa/CHUK = biological target: T14, IKKa/CHUK (Homo sapiens, UniProt O15111); assay: as above; details: single dose concentration of 10 μM, 10 μM ATP
T14 construct: purchased Reaction Biology Corporation
Experimental: as §1, §2, §3

ABL1 = biological target: T15, ABL1 (Homo sapiens, UniProt P00519); assay: as above; details: single dose concentration of 10 μM, 10 μM ATP
T15 construct: purchased Reaction Biology Corporation
Experimental: as §1, §2, §3

MST4 = biological target: T16, MST4 (Homo sapiens, UniProt Q9P289); assay: as above; details: single dose concentration of 10 μM, 10 μM ATP
T16 construct: purchased Reaction Biology Corporation
Experimental: as §1, §2, §3

JAK1 = biological target: T17, JAK1 (Homo sapiens, UniProt P23458); assay: as above; details: single dose concentration of 10 μM, 10 μM ATP
T17 construct: purchased Reaction Biology Corporation
Experimental: as §1, §2, §3

Ros/Ros1 = biological target: T18, Ros/Ros1 (Homo sapiens, UniProt P08922); assay: as above; details: single dose concentration of 10 μM, 10 μM ATP
T18 construct: purchased Reaction Biology Corporation
Experimental: as §1, §2, §3

PIM1 = biological target: T19, PIM1 (Homo sapiens, UniProt P11309); assay: as above; details: single dose concentration of 10 μM, 10 μM ATP
T19 construct: purchased Reaction Biology Corporation
Experimental: as §1, §2, §3

FGFR1 = biological target: T20, FGFR1 (Homo sapiens, UniProt P11362); assay: as above; details: single dose concentration of 10 μM, 10 μM ATP
T20 construct: purchased Reaction Biology Corporation
Experimental: as §1, §2, §3

PAK4 = biological target: T21, PAK4 (Homo sapiens, UniProt O96013); assay: as above; details: single dose concentration of 10 μM, 10 μM ATP
T21 construct: purchased Reaction Biology Corporation
Experimental: as §1, §2, §3

PKCa = biological target: T22, PKCa (Homo sapiens, UniProt P17252); assay: as above; details: single dose concentration of 10 μM, 10 μM ATP
T22 construct: purchased Reaction Biology Corporation
Experimental: as §1, §2, §3

[1] = compared to enzyme activity in DMSO control

T16 sequence (Q9P289 whole entry): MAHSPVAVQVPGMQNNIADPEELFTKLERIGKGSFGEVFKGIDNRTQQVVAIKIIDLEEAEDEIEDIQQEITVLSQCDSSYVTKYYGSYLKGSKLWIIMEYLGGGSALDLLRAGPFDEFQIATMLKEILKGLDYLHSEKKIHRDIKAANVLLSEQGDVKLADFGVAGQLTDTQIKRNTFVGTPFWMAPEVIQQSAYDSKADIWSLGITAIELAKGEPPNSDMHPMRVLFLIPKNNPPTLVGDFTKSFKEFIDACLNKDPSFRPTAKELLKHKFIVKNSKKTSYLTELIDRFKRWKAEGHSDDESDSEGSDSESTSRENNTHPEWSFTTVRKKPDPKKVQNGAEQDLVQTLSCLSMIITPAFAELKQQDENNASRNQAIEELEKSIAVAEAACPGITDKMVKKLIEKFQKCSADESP
T11 sequence (P06239 whole entry): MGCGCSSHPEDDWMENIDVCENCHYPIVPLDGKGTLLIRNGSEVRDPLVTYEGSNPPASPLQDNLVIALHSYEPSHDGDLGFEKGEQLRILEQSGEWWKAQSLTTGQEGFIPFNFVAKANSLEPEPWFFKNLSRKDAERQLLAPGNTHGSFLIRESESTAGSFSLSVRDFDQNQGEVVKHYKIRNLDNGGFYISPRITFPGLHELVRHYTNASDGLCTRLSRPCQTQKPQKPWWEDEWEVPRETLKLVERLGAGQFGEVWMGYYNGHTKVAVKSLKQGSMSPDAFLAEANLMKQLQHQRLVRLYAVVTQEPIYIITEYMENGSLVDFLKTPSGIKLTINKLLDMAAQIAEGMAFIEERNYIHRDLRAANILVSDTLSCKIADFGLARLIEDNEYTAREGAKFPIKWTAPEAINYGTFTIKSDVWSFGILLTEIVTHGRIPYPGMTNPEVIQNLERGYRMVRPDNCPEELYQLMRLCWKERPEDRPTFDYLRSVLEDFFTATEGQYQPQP
T4 sequence (P49674 whole entry): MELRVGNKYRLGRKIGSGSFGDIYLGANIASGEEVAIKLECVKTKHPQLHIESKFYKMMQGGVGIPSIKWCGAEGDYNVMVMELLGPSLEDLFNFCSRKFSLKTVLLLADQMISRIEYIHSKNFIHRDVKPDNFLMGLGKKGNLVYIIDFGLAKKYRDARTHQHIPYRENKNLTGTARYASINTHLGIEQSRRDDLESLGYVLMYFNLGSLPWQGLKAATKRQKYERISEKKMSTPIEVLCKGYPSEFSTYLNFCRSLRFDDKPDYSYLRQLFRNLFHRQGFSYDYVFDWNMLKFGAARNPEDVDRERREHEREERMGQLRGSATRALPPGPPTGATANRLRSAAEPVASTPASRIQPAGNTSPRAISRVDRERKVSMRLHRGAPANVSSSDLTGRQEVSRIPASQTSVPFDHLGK
T13 sequence (P17948 27-1338): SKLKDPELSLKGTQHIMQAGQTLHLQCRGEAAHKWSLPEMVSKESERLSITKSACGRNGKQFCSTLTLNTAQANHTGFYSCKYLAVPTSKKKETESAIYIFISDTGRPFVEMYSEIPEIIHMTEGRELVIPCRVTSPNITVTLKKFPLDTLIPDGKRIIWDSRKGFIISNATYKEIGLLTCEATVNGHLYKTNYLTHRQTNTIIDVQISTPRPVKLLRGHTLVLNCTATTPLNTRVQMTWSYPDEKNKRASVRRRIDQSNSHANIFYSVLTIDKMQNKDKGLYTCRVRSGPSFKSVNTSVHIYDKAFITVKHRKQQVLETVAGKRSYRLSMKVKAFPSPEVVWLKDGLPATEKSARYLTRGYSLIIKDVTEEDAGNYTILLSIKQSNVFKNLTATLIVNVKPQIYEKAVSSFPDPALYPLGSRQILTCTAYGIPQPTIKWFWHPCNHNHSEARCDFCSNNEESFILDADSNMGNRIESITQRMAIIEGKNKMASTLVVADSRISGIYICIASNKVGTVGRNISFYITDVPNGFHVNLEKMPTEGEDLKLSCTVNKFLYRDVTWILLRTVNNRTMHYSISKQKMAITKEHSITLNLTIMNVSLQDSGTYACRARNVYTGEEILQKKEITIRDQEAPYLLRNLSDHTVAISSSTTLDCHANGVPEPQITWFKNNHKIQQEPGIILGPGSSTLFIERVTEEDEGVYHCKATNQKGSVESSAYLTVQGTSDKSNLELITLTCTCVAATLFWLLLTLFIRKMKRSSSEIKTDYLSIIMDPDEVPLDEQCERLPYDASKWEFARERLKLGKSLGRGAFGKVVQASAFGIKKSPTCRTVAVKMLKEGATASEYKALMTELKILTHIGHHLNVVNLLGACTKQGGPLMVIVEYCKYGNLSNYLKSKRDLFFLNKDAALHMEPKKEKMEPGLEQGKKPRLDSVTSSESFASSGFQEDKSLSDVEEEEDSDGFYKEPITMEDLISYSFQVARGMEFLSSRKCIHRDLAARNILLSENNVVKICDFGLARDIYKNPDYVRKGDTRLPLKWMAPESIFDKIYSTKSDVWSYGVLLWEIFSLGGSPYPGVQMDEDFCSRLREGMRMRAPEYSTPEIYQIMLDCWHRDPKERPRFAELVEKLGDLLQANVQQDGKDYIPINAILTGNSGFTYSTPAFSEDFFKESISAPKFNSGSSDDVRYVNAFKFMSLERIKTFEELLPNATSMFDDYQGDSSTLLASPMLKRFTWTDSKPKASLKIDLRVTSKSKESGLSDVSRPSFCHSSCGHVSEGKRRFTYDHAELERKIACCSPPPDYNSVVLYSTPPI
T7 sequence (P04629 33-796): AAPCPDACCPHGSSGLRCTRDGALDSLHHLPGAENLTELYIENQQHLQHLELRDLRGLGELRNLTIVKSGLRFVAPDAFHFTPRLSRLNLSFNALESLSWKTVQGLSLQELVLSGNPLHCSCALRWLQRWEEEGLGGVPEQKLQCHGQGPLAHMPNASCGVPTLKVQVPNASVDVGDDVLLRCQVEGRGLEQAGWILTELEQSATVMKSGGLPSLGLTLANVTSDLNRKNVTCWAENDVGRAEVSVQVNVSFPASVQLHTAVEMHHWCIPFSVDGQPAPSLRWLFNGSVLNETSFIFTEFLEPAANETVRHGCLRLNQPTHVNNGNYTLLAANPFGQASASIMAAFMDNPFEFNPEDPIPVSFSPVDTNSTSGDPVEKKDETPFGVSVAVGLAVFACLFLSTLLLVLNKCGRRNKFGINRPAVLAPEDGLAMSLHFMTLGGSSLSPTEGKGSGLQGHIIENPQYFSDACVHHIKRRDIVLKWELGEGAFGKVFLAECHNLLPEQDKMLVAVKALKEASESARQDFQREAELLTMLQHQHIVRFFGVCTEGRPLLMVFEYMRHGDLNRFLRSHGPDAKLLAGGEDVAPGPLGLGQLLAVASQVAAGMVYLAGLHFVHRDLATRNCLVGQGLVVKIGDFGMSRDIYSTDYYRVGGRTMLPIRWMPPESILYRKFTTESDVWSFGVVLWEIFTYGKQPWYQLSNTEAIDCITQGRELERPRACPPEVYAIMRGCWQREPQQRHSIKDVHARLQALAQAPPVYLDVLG
T9 sequence (P12931 whole entry): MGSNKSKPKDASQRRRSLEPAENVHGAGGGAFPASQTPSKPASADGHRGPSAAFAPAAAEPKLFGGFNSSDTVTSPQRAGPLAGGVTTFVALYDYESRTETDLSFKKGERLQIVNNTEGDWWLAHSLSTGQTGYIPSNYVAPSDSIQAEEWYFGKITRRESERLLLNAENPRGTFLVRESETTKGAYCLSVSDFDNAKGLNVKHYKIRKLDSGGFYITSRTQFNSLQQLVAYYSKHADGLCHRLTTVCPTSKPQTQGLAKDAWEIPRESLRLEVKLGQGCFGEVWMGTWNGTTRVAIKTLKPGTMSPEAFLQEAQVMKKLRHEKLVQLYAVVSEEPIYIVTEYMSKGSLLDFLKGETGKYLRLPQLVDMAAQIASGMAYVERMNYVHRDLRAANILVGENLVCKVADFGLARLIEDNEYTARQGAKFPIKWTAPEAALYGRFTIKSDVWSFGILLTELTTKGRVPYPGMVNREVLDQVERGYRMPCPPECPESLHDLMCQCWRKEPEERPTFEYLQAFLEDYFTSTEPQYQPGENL
T21 sequence (O96013 whole entry): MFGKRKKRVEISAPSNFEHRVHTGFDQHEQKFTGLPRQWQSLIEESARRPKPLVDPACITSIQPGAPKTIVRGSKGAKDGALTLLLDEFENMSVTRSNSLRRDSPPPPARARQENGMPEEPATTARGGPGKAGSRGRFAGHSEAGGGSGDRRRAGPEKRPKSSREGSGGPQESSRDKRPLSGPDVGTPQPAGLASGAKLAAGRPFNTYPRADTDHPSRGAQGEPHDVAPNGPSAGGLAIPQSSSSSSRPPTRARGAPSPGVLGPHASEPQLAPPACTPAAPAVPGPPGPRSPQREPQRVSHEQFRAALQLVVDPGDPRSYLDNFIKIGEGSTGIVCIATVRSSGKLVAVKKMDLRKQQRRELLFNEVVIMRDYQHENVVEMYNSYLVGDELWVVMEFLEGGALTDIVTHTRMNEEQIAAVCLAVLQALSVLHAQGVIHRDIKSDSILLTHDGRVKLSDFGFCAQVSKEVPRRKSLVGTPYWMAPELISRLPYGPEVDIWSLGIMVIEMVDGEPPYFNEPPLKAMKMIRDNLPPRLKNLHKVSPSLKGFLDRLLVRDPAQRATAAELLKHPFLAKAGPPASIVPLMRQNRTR
T19 sequence (P11309 whole entry): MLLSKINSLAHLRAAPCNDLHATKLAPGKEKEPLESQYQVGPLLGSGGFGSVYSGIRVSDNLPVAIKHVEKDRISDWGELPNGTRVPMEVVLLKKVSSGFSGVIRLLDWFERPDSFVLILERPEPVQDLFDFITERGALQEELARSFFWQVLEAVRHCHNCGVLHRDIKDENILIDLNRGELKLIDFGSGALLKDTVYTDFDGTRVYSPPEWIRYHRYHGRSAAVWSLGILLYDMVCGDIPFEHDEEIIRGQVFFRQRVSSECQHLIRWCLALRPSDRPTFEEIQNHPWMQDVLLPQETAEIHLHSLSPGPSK

## Cc1cc(O)cc(-c2nn(CC#N)cc2-c2cc(NC[C@H](C)O)nc(-c3cccnc3)n2)c1 [Example 10, [4-[6-(2(S)-hydroxypropylamino)-2-pyridin-3-yl-pyrimidin-4-yl]-3-(3-hydroxy-5-methylphenyl)-pyrazol-1-yl]acetonitrile]
ROS kinase
  IC50: 199 nM
AKT1 (dPH, S473D)
  inhibition at 10 µM: -2.97%
AKT1 (dPH, S473D); [1]
  activity at 10 µM: 103%
EPHA1
  inhibition at 10 µM: 23.3%
EPHA1; [1]
  activity at 10 µM: 76.7%
RET
  inhibition at 10 µM: 6.65%
RET; [1]
  activity at 10 µM: 93.3%
CK1epsilon
  inhibition at 10 µM: 9.32%
CK1epsilon; [1]
  activity at 10 µM: 90.7%
RAF1
  Inhibition (%): 20.39%
RAF1; [1]
  Activity (%): 79.61%
BRAF
  inhibition at 10 µM: 8.97%
BRAF; [1]
  activity at 10 µM: 91%
CDK1/cyclinB
  inhibition at 10 µM: 3.64%
CDK1/cyclinB; [1]
  activity at 10 µM: 96.4%
TRKA/NTRK1
  inhibition at 10 µM: -0.14%
TRKA/NTRK1; [1]
  activity at 10 µM: 100%
RON/MST1R
  inhibition at 10 µM: 28.8%
RON/MST1R; [1]
  activity at 10 µM: 71.1%
c-Src
  inhibition at 10 µM: 16.2%
c-Src; [1]
  activity at 10 µM: 83.8%
RocK1
  inhibition at 10 µM: 11.7%
RocK1; [1]
  activity at 10 µM: 88.3%
LCK
  inhibition at 10 µM: 10.3%
LCK; [1]
  activity at 10 µM: 89.7%
KDR/VEGFR2
  inhibition at 10 µM: -5.84%
KDR/VEGFR2; [1]
  activity at 10 µM: 106%
FLT1
  inhibition at 10 µM: -1.67%
FLT1; [1]
  activity at 10 µM: 102%
IKKa/CHUK
  inhibition at 10 µM: 1.37%
IKKa/CHUK; [1]
  activity at 10 µM: 98.6%
ABL1
  inhibition at 10 µM: 20.4%
ABL1; [1]
  activity at 10 µM: 79.6%
MST4
  inhibition at 10 µM: -1.54%
MST4; [1]
  activity at 10 µM: 102%
JAK1
  inhibition at 10 µM: 9.15%
JAK1; [1]
  activity at 10 µM: 90.8%
Ros/Ros1
  inhibition at 10 µM: 93.9%
Ros/Ros1; [1]
  activity at 10 µM: 6.08%
PIM1
  inhibition at 10 µM: 5.91%
PIM1; [1]
  activity at 10 µM: 94.1%
FGFR1
  inhibition at 10 µM: -8.05%
FGFR1; [1]
  activity at 10 µM: 108%
PAK4
  inhibition at 10 µM: 1.37%
PAK4; [1]
  activity at 10 µM: 98.6%
PKCa
  inhibition at 10 µM: 9.23%
